Source: PMC8073686, “Characterization of Subtype Selective Cannabinoid CB2 Receptor Agonists as Potential Anti-Inflammatory Agents” (Pharmaceuticals, 2021)

How the values were obtained:
CB2 [1] = biological target: T1, CB2 (Homo sapiens, UniProt P34972); assay: Competitive [3H]CP55,940 radioligand binding, CB2-transfected HEK293T cell membrane; settings: competition with [3H]CP55,940; mean ± S.D.
T1 construct: expressed in transfected cells; host or cells: HEK293T cells, calcium phosphate transfection, membrane preparation
Excerpt: (§1) To evaluate binding affinity of ABK5 analogs that have a difference in the position of substituents in the N-phenyl ring (Figure 1), we performed competitive radiolabeled ligand binding assays using cell membrane from HEK293T cells transfected with human CB2 receptors. […] ABK5-1, ABK5-2, and ABK5-6 dose-dependently competed with [^3H]CP55,940 and decreased the specific binding of the radiolabeled agonist, which reflects the binding of test compounds to CB2. […] Therefore, ABK5-5 was not considered for further evaluation in this study. […] We also examined CB2 selectivity (versus CB1) of the three compounds by performing similar binding assays using membrane from CB1 expressing HEK293 cells instead of CB2 expressing cells. […] Therefore, ABK5-1 and 5-2 maintained the CB2 subtype selectivity of ABK5.
(§2) In the experiment, 1 × 10^6 HEK293T cells were seeded in a 10-cm cell culture dish and cultured for 24 h. Cells were transfected with CB1 or CB2 using the calcium phosphate method. Approximately one day after transfection, cells were harvested and centrifuged at 4 °C for 5 min at 500× g. The pellet was washed with phosphate buffered saline (PBS) twice and resuspended in PBS containing 1% protease-inhibitor cocktail (Sigma-Aldrich, St. Louis, MO, USA) consisting of 104 mM 4-(2-aminoethyl) benzene sulfonyl fluoride hydrochloride (AEBSF), 80 μM apronitin, 4 mM bestatin, 1.64 mM E-64, 2 mM leupeptin, 1.5 mM pepstatin A. Then the cells were subjected to nitrogen cavitation under 750 psi for 5 min using a Parr cell disruption bomb. The lysate was centrifuged at 500× g for 10 min at 4 °C and the supernatant was spun at 116,000× g for 45 min at 4 °C. The pellet, consisting of the cell membrane expressing CB1 or CB2, was resuspended in TME buffer solution (25 mM Tris-HCl, 5 mM MgCl2, and 1 mM EDTA, pH 7.4) with 7% (w/v) sucrose/TME buffer. The concentration of the membrane protein was determined by the Bradford assay (Bradford, 1976).
Membrane protein was mixed with 1 nM to 10 μM of the test compounds and 1 nM [^3H]CP55,940 (164.9 Ci/mmol; PerkinElmer life Sciences, Waltham, MA, USA), and TME buffer supplemented with 0.2% BSA was used to bring the total volume to 200 μL. [^3H]CP55,940 acts as tracer and agonists that bind the target receptor compete with [^3H]CP55,940. Samples were incubated for 1 h at 30 °C. Ten μM unlabeled CP55,940 was used to determine non-specific binding. […] A Beckman Coulter 6500 liquid scintillation counter was used to measure the radioactivity of the samples.
Results are presented as the mean ± standard deviation (S.D.). […] The Ki values in the ligand binding assay were calculated using the Prism software (GraphPad Software Inc., San Diego, CA, USA), using IC50 values obtained from non-linear regression fitted to the one-site binding model. […]

CB1 receptor = biological target: T2, CB1 receptor (Homo sapiens, UniProt P21554); assay: Competitive [3H]CP55,940 radioligand binding, membrane from CB1 expressing HEK293 cells; settings: for Ki CB1 (CP55,940): competition with [3H]CP55,940, N.B. = no specific binding detected up to 10 μM of test compounds; for CB1 receptor binding: not bound up to: test compound 1 nM to 10 μM
T2 construct: expressed in transfected cells; host or cells: HEK293T cells (called 'HEK293 cells' in Results), calcium phosphate transfection, membrane preparation
Excerpt: as §1, §2
Membrane protein was mixed with 1 nM to 10 μM of the test compounds and 1 nM [^3H]CP55,940 (164.9 Ci/mmol; PerkinElmer life Sciences, Waltham, MA, USA), and TME buffer supplemented with 0.2% BSA was used to bring the total volume to 200 μL. [^3H]CP55,940 acts as tracer and agonists that bind the target receptor compete with [^3H]CP55,940. Samples were incubated for 1 h at 30 °C. Ten μM unlabeled CP55,940 was used to determine non-specific binding. Reactions were stopped by adding 5% BSA/TME buffer (w/v) and samples were filtered through a Brandel cell harvester using Whatman GF/C filter paper. Ultima Gold XR liquid scintillation cocktail (PerkinElmer Life Sciences, Waltham, MA, USA) was then added and vortexed. A Beckman Coulter 6500 liquid scintillation counter was used to measure the radioactivity of the samples.
Results are presented as the mean ± standard deviation (S.D.). The ligand binding assays and the GTPγS binding assays were both carried out in duplicate for three independent experiments. The Ki values in the ligand binding assay were calculated using the Prism software (GraphPad Software Inc., San Diego, CA, USA), using IC50 values obtained from non-linear regression fitted to the one-site binding model. The Cheng-Prusoff equation [48], which is used for calculation of Ki value is shown below. (1) Ki=IC50/1+L/Kd

CB2 [2] = biological target: T1, CB2; assay: [35S]GTPγS binding assay (G-protein coupling), CB2 containing HEK293T cell membrane; assay type: biochemical; settings: stimulation of [35S]GTPγS binding; mean ± S.D.
Experimental: We also examined if the compounds can induce G-protein coupling and act as CB2 agonists. Three compounds, ABK5-1, ABK5-2, and ABK5-6, were subjected to [^35S]GTPγS binding assays. Increasing concentrations, from 1 nM to 10 μM of the test compounds, were incubated with CB2 containing HEK293T cell membrane and [^35S]GTPγS, which binds to Gi/o in the membrane upon CB2 activation and G-protein coupling. All three compounds stimulated dose-dependent increases of specific [^35S]GTPγS binding (Figure 3).
as §2
GTPγS binding assay buffer ([…], pH 7.4, 3 mM MgCl2, 0.2 mM EGTA, and 100 mM NaCl) membrane protein, 1 nM to 10 μM of the test compounds, 0.1 nM [^35S] GTPγS (1250 Ci/mmol; PerkinElmer Life Sciences, Waltham, MA, USA), 0.1% fatty acid free BSA (w/v), 10 μM guanosine diphosphate (GDP) and GTPγS was incubated for 1 h at 30 °C with shaking. […] A Beckman Coulter 6500 liquid scintillation counter was used to measure the radioactivity of the samples. […]

T2 sequence (P21554 whole entry): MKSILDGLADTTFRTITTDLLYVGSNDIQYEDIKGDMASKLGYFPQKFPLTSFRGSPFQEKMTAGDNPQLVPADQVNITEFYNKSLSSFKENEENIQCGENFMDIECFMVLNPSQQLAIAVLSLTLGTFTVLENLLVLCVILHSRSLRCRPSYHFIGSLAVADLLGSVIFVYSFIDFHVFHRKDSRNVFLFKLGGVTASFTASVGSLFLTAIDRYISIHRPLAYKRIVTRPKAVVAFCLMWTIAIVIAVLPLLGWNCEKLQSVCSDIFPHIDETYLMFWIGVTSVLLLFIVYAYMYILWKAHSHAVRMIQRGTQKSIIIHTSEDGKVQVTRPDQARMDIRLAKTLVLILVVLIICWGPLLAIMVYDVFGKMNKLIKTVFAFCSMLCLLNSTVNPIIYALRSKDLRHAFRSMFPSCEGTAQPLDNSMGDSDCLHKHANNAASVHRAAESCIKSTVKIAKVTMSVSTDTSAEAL
T1 sequence (P34972 whole entry): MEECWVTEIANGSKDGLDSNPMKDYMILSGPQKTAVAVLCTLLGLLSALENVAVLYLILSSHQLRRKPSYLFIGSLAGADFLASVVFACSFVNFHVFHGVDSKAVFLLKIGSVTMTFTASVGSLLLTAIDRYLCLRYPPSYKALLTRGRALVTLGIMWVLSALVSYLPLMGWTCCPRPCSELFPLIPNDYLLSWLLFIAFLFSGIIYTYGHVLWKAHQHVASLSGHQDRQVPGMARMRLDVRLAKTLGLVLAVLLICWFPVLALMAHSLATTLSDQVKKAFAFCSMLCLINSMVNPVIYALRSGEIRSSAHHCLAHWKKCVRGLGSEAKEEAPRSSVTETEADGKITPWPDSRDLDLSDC

| Ki (CB2 [1]) | Ki CB1 (CP55,940) (CB1 receptor) | CB1 receptor binding: not bound up to (CB1 receptor) | EC50 (CB2 [2]) | Structure (SMILES) |
| --- | --- | --- | --- | --- |
| 28 ± 5 nM | N.B. ^c | > 10 µM | 11 ± 14 nM | CCOC(=O)c1ccccc1NC(=O)CN(c1ccc(C)cc1C)S(=O)(=O)c1ccccc1 [ABK5-1] |
| 69 ± 19 nM | N.B. ^c | > 10 µM | 24 ± 25 nM | CCOC(=O)c1ccccc1NC(=O)CN(c1c(C)cccc1C)S(=O)(=O)c1ccccc1 [ABK5-2] |
